Experiment: mn = molality of the nth substance listed, in mol/kg
Conditions: 350 kPa, Liquid, Extra sensitive DSC

N[C@@H](CO)C(=O)O [L-serine] + O
apparent molar heat capacity [J/K/mol]
Conditions	m1 = 0.015	m1 = 0.0302	m1 = 0.05	m1 = 0.08	m1 = 0.1249	m1 = 0.2501	m1 = 0.3717	m1 = 0.7002	m1 = 1.001
278.15 K	58.9	59.2	58.9	60.7	62.4	67.93	72.64	84.65	94.04
283.15 K	78.9	79.3	79.2	80.6	82.1	86.36	90.3	99.99	108.37
288.15 K	94.8	95.4	95.2	96.5	97.7	101.28	104.58	112.69	120.13
293.15 K	108	108.7	108.4	109.5	110.5	113.56	116.4	123.33	129.97
298.15 K	118.7	119.4	119.2	120.1	120.9	123.63	126.11	132.2	138.25
303.15 K	127.9	128.6	128.4	129.2	129.9	132.24	134.43	139.82	145.45
308.15 K	135.6	136.4	136.2	136.9	137.5	139.63	141.58	146.36	151.62
313.15 K	142.6	143.1	142.9	143.5	144.1	145.98	147.77	152.15	157.1
318.15 K	148.7	148.9	148.6	149.2	149.7	151.4	153.04	157.06	161.73
323.15 K	153.9	154.1	153.8	154.2	154.6	156.2	157.74	161.47	165.95
328.15 K	158.6	158.6	158.3	158.7	159	160.4	161.86	165.32	169.63
333.15 K	163.4	163.1	162.2	162.6	162.9	164.2	165.59	168.83	173.01
338.15 K	167.3	166.8	165.8	166.2	166.4	167.6	168.91	172	176.07
343.15 K	170.4	169.9	168.8	169	169.3	170.5	171.75	174.71	178.65
348.15 K	173.7	172.4	171.4	171.6	171.9	173.1	174.28	177.14	181.02
353.15 K	176	174.9	173.8	174	174.3	175.4	176.6	179.33	183.15
358.15 K	178	176.9	176	176	176.4	177.4	178.6	181.28	185.03
363.15 K	179	178.4	177.6	177.7	178.1	179.1	180.3	182.94	186.63
368.15 K	181	179.7	178.9	179	179.6	180.6	181.8	184.38	188
373.15 K	181	180.9	180.2	180.1	180.7	181.8	183	185.63	189.22
378.15 K	181	181.7	181	180.7	181.7	182.9	183.9	186.55	190.12
383.15 K	182	182.2	181.8	181.3	182.4	183.8	184.8	187.46	190.98
388.15 K	183	182.6	182.7	181.4	183	184.4	185.4	188.07	191.6
393.15 K	183	182.6	183.3	181.2	183.4	184.8	185.7	188.6	192.04

Source: the NIST ThermoML archive (doi:10.1016/j.jct.2005.07.019)
